Here are results for two molecules from paper PMC8476755 (Frontiers in Chemistry, 2021).

Like-named read-outs stand apart in the source and are kept apart here.

In this assay the target is T1, GAT3 L314Q (Homo sapiens, UniProt P48066, L314Q).
T1 construct: expressed in transfected cells; host or cells: tsA201 (transformed HEK293), transient
T1 sequence (P48066 1-632 L314Q): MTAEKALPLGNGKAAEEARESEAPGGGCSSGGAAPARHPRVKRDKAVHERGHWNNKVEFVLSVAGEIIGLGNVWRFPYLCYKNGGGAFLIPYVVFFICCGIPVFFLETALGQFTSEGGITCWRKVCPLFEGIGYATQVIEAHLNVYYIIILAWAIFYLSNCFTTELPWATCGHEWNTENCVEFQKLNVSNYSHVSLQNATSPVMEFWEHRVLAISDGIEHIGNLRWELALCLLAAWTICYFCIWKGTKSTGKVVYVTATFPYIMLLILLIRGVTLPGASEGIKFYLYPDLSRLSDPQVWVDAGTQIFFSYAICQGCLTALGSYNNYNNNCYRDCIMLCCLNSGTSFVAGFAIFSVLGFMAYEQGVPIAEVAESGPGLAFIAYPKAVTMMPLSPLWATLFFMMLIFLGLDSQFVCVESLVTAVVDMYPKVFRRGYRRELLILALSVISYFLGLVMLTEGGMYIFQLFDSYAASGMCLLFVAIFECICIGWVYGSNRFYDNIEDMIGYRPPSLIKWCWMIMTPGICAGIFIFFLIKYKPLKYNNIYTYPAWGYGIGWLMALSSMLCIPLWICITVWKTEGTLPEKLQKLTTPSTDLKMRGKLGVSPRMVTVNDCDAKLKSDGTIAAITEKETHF
Nature of the assay: [3H]GABA uptake assay, transient expression in tsA201 cells. The assay is classed as cell-based. The settings on record: for Increase in inhibitory activity relative to wt: GAT3 L314Q vs GAT3 wt; for IC50: GAT3 L314Q, tsA201 cells. The source says:
According to the docking and MD results, the sidechains of Q299 and E52 were identified to form crucial interactions with the protonated nitrogen of both compounds. The residue Q299 in human BGT1 corresponds to leucine in all other GATs (human, rat, mouse), while E52 corresponds to tyrosine in GAT1 (human, rat, mouse) but is conserved among GAT2, GAT3 and BGT1 (human, rat, mouse) (Figure 6A) ([Kickinger et al., 2019]). Thus, we engineered the corresponding mutants Q299L and E52Y in human BGT1 and predicted that the introduction of these mutations would lead to decreased activity of both bicyclo-GABA and 2 due to the loss of essential hydrogen bond interactions. Furthermore, we wanted to test the double mutant E52Y + Q299L. However, in a previous study this mutant was proven non-functional ([Kickinger et al., 2020]). Instead, we generated the double mutant E52A + Q299L as well as the single mutant E52A. For these mutants we predicted decreased activity. Lastly, the reciprocal mutation to BGT1 Q299L was created in GAT3 (L314Q), ideally expecting a gain-of-function.
FIGURE 6 (A) Pocket alignment of the orthosteric site of the four GAT subtypes colored according to the default ClustalX color scheme ([Larkin et al., 2007]). The pocket was defined as all corresponding GAT residues (15 in total) that are within a distance of 4.5 Å of the co-crystallized ligand leucine in the homologous LeuT crystal structure (PDB ID 2A65) ([Yamashita et al., 2005]) according to the alignment by Kickinger et al. ([Kickinger et al., 2019]). The mutated residues in BGT1 and the corresponding residues in GAT1-3 are indicated by a red box. The numbering of all residues within the orthosteric pocket can be found in the Supplementary Table S1.
The tsA201 cell line (a transformed HEK293 cell line), the Flp-In CHO cell lines stably expressing human (h) GATs and the HEK293 cell line stably expressing human α1β2γ2 GABAA receptors have been described previously and were cultured accordingly ([Al-Khawaja et al., 2014]; [Falk-Petersen et al., 2020]). The tsA201 cell line used for transient expression of hGATs was transfected with DNA constructs (8 μg per 10 cm plate) using 40 μL PolyFect transfection reagent according to the manufacturer’s protocol (Qiagen). All DNA constructs used have been described previously: wt hBGT1, wt GAT3 ([Kvist et al., 2009]), BGT1 Q299, GAT3 L314Q ([Jørgensen et al., 2017]), hBGT E52Y, BGT1 E52A and BGT1 E52A + Q299L ([Kickinger et al., 2020]).
Briefly, cells were seeded in white 96-well plates (White Opaque Tissue Culture (TC) plated 96-well Microplate) pre-coated with PDL. Medium was removed on the following day and cells washed with 100 µL/well assay buffer (HBSS supplemented with 20 mM HEPES, 1 mM CaCl2 and 1 mM MgCl2, pH 7.4). […] The cells were washed 3 times with 100 µL/well ice-cold assay buffer, 150 µL/well MicroScint™20 was subsequently added before the plate was shaken for at least 1 h. The plate was counted in a Packard TopCounter microplate scintillation counter (PerkinElmer) for 3 min per well. Typical counts per minute for the different GATs were in the range of: wt hBGT1 (100–4,000), BGT1 Q299 (100–1,000), hBGT E52Y (150–500), BGT1 E52A (150–8,000), BGT1 E52A + Q299L (150–500), wt GAT3 (200–8,000), GAT3 L314Q (100–1,500), wt GAT1 (100–10,000) and wt GAT2 (150–7,500). […] Data presented is the pooled data of at least three independent experiments with three technical replicates if not stated otherwise in figure legends. Concentration–response curves were fitted by non-linear regression to the sigmoidal concentration-response model with GraphPad Prism (version 9.0.0, GraphPad Software, San Diego, CA, United States) as described ([Lie et al., 2020]).

Take `CN[C@@]12CC[C@H](C(=O)O)[C@@H]1C2` [compound 2]: the “Increase in inhibitory activity relative to wt” value is reported as “not increased”. For the same molecule, the IC50 (read-out: IC50) turned out to be 291 µM.

With `N[C@@]12CC[C@H](C(=O)O)[C@@H]1C2` [bicyclo-GABA, (1S,2S,5R)-5-aminobicyclo[3.1.0]hexane-2-carboxylic acid], the “Increase in inhibitory activity relative to wt” value is reported as 38 times. Besides, the IC50 (read-out: IC50) turned out to be 16 µM. The IC50 (read-out: pIC50 ± S.E.M. (converted)) was 12.6 µM.
